Test results as given in paper PMC6199744, “Development of Chemical Proteomics for the Folateome and Analysis of the Kinetoplastid Folateome” (ACS Infectious Diseases, 2018).
Read-outs that look alike come from different tables or passages of the source.

Experiments:
Type in all cases: binding
[1] = target: T1, HeLa cell extract proteins (Homo sapiens, UniProt Q01813)
T1 construct: endogenous in cells; host or cells: HeLa cell extract
T1 sequence (Q01813 1-784): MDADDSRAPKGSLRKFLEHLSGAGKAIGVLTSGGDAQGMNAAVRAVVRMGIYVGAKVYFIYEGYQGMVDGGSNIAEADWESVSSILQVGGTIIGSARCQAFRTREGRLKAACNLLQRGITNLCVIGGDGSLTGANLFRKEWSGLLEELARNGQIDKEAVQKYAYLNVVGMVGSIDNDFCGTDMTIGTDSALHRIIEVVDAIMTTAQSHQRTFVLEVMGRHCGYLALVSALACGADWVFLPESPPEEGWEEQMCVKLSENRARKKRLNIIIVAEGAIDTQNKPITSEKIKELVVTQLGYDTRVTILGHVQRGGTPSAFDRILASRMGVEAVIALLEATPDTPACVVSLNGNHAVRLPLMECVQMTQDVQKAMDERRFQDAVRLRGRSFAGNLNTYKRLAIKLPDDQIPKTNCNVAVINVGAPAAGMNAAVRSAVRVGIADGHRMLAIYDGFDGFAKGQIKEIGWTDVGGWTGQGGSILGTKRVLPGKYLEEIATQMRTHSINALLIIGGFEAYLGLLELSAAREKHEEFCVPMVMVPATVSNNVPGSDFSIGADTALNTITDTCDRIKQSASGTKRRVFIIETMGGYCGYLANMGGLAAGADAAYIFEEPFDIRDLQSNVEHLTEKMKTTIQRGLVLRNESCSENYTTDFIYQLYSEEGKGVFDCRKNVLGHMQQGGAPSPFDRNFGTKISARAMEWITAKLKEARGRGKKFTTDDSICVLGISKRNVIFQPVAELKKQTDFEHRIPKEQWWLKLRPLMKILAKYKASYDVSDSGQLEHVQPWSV

[2] = target: T2, HeLa cell extract proteins (Homo sapiens, UniProt P10809)
T2 construct: endogenous in cells; host or cells: HeLa cell extract

[3] = target: T3, HeLa cell extract proteins (Homo sapiens, UniProt Q96EN8)
T3 construct: endogenous in cells; host or cells: HeLa cell extract
T3 sequence (Q96EN8 1-888): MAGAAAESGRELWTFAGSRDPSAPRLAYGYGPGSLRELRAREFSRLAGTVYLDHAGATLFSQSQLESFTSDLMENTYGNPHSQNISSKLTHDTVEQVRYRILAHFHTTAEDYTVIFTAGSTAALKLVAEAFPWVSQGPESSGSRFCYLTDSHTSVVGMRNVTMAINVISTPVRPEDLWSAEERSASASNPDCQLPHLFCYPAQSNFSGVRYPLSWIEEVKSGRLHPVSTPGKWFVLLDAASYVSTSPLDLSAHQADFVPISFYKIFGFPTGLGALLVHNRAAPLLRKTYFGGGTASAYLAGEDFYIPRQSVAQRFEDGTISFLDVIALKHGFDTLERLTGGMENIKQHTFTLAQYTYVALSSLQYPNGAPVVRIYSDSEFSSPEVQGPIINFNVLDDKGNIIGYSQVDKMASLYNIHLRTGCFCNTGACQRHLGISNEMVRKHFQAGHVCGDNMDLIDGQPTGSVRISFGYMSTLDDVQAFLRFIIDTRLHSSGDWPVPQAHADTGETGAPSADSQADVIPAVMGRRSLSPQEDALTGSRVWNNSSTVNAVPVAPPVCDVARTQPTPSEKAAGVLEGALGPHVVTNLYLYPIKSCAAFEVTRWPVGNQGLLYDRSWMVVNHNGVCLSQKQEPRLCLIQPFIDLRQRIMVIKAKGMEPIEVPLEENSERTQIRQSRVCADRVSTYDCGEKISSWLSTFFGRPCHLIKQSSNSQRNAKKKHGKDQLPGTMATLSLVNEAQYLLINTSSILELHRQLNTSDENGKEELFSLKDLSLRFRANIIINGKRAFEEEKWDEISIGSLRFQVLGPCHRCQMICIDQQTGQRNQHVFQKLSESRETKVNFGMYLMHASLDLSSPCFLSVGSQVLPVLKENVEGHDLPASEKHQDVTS

[4] = target: T4, HeLa cell extract proteins (Homo sapiens, UniProt P61978)
T4 construct: endogenous in cells; host or cells: HeLa cell extract

[5] = target: T5, HeLa cell extract proteins (Homo sapiens, UniProt P23396)
T5 construct: endogenous in cells; host or cells: HeLa cell extract

[6] = target: T6, HeLa cell extract proteins (Homo sapiens, UniProt P23381)
T6 construct: endogenous in cells; host or cells: HeLa cell extract
T6 sequence (P23381 1-471): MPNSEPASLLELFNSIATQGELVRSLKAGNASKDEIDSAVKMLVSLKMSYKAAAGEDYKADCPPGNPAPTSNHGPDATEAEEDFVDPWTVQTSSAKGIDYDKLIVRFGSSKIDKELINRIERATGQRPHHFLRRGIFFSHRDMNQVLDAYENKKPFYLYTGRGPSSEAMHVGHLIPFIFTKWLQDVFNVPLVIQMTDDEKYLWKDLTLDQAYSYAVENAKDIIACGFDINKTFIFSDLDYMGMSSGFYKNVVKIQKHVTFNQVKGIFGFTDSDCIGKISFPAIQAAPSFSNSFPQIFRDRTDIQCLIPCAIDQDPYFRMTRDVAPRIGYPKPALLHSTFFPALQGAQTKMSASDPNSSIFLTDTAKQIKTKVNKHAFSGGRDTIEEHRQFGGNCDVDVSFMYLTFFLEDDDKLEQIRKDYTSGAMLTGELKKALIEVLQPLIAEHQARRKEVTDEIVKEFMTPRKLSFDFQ

T2 sequence (P10809 27-573): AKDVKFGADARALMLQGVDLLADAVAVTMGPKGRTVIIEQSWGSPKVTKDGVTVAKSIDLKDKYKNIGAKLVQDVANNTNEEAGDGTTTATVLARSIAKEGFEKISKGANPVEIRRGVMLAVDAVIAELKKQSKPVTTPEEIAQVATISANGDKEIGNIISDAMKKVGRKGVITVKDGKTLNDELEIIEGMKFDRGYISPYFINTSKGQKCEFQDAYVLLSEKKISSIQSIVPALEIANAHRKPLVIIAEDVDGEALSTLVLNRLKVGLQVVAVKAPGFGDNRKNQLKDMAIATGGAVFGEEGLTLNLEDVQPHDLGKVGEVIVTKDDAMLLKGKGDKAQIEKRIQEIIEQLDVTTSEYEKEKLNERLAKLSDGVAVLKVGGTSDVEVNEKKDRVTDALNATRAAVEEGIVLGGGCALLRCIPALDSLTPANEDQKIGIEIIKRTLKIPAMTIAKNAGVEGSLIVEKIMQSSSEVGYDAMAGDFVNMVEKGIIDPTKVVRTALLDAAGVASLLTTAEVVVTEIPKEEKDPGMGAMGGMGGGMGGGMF

Row | Structure (SMILES) | fold changes relative to vehicle control ([1]; HeLa, protein PFKP) | fold changes relative to vehicle control ([2]; HeLa, protein HSPD1) | fold changes relative to vehicle control ([3]; HeLa, protein MOCOS) | fold changes relative to vehicle control ([4]; HeLa, protein HNRNPK) | fold changes relative to vehicle control ([5]; HeLa, captured protein RPS3) | fold changes relative to vehicle control ([6]; protein WARS, HeLa) | fold changes relative to vehicle control [1] | fold changes relative to vehicle control [2] | fold changes relative to vehicle control [3] | fold changes relative to vehicle control [4] | fold changes relative to vehicle control [5] | fold changes relative to vehicle control [6] | fold changes relative to vehicle control ([1]; captured protein PFKP, HeLa) | fold changes relative to vehicle control ([2]; protein HSPD1, HeLa) | fold changes relative to vehicle control ([4]; protein HNRNPK, HeLa) | fold changes relative to vehicle control ([5]; captured protein RPS3, HeLa)
1 | Nc1nc2c(c(=O)[nH]1)N(C=O)C(CNc1ccc(C(=O)N[C@@H](CCC(=O)O)C(=O)O)cc1)CN2 (stereo partly drawn) [LEU, leucovorin] | 0.88 | 1.12 | 1.07 | 0.94 | 1.08 | 0.95 | – | – | – | – | – | – | – | – | – | –
2 | Nc1nc2[nH]cc(CCc3ccc(C(=O)N[C@@H](CCC(=O)O)C(=O)O)cc3)c2c(=O)[nH]1 [PTX, pemetrexed] | – | – | – | – | – | – | 0.9 | 1.14 | 1.01 | 0.96 | 1.18 | 1.02 | – | – | – | –
3 | CCCCCCOc1ccc(Cc2cnc(N)nc2N)cc1 [compound 1] | – | – | 1.03 | – | – | 0.96 | – | – | – | – | – | – | 1.05 | 1.32 | 0.99 | 1.08
4 | CCCCCCOc1cccc(Cc2cnc(N)nc2N)c1 [compound 2] | – | – | 1.11 | – | – | 1.71 | – | – | – | – | – | – | 1.01 | 1.71 | 1.39 | 1.16
5 | Nc1nc2cccc(-c3ccccc3)c2n1Cc1ccc(Cl)c(Cl)c1 [compound 3] | – | – | 0.96 | – | – | 0.9 | – | – | – | – | – | – | 1.02 | 1.03 | 1.02 | 1.03
6 | NCCOCCOCC(=O)Nc1nc2ncc(CNc3ccc(C(=O)NC(CCC(=O)O)C(=O)O)cc3)nc2c(=O)[nH]1 (stereo not drawn) [compound 6] | 0.95 | 1.21 | 1.11 | 1.13 | 1.11 | 1.19 | – | – | – | – | – | – | – | – | – | –
7 | NCCCNc1ccc(C(=O)NC(CCC(=O)O)C(=O)O)cc1 (stereo not drawn) [compound 7] | 0.93 | 1 | 1.06 | 0.95 | 1.15 | 0.98 | – | – | – | – | – | – | – | – | – | –
